Literature values as cited in PMC8287028 (Frontiers in Veterinary Science, 2021).

Tested on: Factor Xa
Parameters: method as in PMID 35442563
Conditions: 19 sick dogs, post-treatment monitoring; cited from earlier work

O=C(NC[C@H]1CN(c2ccc(N3CCOCC3=O)cc2)C(=O)O1)c1ccc(Cl)s1 [rivaroxaban]
dogs with aXa activities below the range associated with positive clinical outcomes in humans: 8/19 | dogs with aXa activities exceeding the range associated with positive clinical outcomes in humans: 8/19
